Source: patent publication US20180078516A1 (InnovaZone Labs LLC, priority 2016, published 2018)

Legend:
[1] = cited from earlier work
[2] = cited from earlier work; remark: listed apart in the source
clinical = conditions: human, in vivo, po, 400 mg

## CC(C)Cc1ccc(C(C)C(=O)O)cc1 (racemic) [Ibuprofen, (R,S)-2-(4-isobutylphenyl) propionic acid]
[1]
  onset of therapeutic effects after oral administration: between 45 minutes and one hour
[2]
  solubility in water: practically insoluble

## CC(C)Cc1ccc(C(C)C(=O)O)cc1 (racemic) [ibuprofen sodium dihydrate, (R,S)-2-(4-isobutylphenyl) propionate sodium]
clinical
  Tmax: ~35 min
